US20070093554A1, “AGENT FOR IMPROVING FEELING OF COLD” (priority 2005, published 2007)

Assay: Improvement in feeling of cold evaluated by Visual Analogue Scale (VAS) method after 3 weeks ingestion of tablets
Type: in vivo, human
Conditions: 6 tablets of example 1 a day for 3 weeks, normal subjects 45 to 64 years, vs tablet not containing ornithine; FIG. 2
Method: Before the ingestion and just after the ingestion, the improvements in feeling of cold of each subject were evaluated using Visual Analogue Scale (VAS) method.
Specifically each end of the segment has a criterion of expression. Referring to FIG. 1, each subject marked somewhere in the line, corresponding to each term of the questionnaires. The distance (mm) from the left end of the line to the marked point was measured and the difference between before and after the test was calculated. The difference by the value before the test was shown in the percentage calculated; and each average value and standard deviation for each group were calculated. […] Further, it was confirmed that there was no difference between two groups before the administration test.
Further the test was carried out under a random assignment and the comparison between the double blind parallel groups was carried out. The test of the statistically significant difference between two groups was an unpaired t-test of both side distributions using the difference between the beginning and just after the test.

With `NCCC[C@H](N)C(=O)O` [ornithine] the “coldness of hands and feet (improvement, VAS)” value was “improved remarkably”.
